# Molecular target: T1, F508del (Homo sapiens, UniProt P13569, DEL508-508)
# T1 construct: expressed in transfected cells
# Assay: Protocol 1: membrane potential optical assay (FLIPR III, voltage sensing dye), identification of potentiator compounds
# Type: cell-based
# Details: Table 3, compounds of Table 1
# Outline: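 NIH 3T3 fibroblasts stably expressing F508del were cultured at 27° C for 24 hrs for temperature correction, then treated with compounds or DMSO and loaded with a voltage-sensing redistribution dye. Forskolin added with a Cl⁻ gradient activated the channel; membrane-potential fluorescence on FLIPR III reported increased gating.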
# T1 sequence (P13569 with tags, fused parts or gaps DEL508-508): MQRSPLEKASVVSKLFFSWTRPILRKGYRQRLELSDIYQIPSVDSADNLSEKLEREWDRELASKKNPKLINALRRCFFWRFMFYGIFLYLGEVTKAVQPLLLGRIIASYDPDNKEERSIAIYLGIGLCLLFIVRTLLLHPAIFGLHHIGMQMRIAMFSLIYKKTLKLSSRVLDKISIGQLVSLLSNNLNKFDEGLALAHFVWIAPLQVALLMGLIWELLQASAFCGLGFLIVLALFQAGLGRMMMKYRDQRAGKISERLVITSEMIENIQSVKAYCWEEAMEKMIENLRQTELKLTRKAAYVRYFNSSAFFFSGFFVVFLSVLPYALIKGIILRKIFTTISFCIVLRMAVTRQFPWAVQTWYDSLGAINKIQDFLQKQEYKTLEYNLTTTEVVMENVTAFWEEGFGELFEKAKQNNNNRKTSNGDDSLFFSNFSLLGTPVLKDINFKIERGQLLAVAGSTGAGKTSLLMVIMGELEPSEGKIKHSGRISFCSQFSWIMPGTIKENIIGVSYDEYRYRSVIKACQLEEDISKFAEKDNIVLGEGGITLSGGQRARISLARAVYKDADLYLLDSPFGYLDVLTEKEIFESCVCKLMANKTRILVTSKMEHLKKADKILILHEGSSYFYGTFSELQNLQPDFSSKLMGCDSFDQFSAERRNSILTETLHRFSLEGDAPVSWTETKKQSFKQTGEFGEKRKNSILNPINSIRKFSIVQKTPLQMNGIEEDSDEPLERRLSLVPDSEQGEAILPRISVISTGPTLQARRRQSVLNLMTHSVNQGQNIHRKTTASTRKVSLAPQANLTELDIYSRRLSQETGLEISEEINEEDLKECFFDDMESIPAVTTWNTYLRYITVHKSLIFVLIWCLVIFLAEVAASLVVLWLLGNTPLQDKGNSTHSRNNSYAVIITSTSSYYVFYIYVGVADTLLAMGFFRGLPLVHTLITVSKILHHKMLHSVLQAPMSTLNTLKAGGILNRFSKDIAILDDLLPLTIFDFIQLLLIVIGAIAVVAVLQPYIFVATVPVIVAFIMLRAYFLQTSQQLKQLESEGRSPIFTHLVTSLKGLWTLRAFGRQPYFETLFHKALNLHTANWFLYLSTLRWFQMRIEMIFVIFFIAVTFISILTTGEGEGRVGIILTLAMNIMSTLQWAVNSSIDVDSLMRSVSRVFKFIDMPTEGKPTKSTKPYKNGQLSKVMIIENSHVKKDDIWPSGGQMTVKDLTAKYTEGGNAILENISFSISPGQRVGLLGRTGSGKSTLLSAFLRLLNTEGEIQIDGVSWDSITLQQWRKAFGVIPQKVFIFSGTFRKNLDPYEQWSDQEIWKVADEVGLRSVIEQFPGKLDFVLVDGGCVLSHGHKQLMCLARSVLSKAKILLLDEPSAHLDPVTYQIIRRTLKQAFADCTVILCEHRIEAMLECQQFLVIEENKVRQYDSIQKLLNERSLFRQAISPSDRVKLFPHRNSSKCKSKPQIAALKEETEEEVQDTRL
row,SMILES,EC30
1,"COc1ccc(OC)c(-c2ccc(C(=O)NS(=O)(=O)c3ccc[nH]c3=O)c(Oc3c(C)cc(C)cc3C)n2)c1 [Compound 888, 6-(2,5-dimethoxyphenyl)-N-[(2-oxo-1H-pyridin-3-yl)sulfonyl]-2-(2,4,6-trimethylphenoxy)pyridine-3-carboxamide]",++ (“++” means between 3 uM and 10 uM)
2,"Cc1cc(C)c(Cn2c(C(=O)NS(=O)(=O)c3cccc(N)c3)cc3ccc(C#N)cc32)c(C)c1 [Compound 1082, N-(3-aminophenyl)sulfonyl-6-cyano-1-[(2,4,6-trimethylphenyl)methyl]indole-2-carboxamide]",+ (“+” means greater than 10 uM)
3,"CC(C)COc1cc(F)cc(-c2ccc(C(=O)NS(=O)(=O)N3CCCC(N(C)C)C3)c(N3CC(C)CC3(C)C)n2)c1 (stereo not shown) [Compound 1414, N—[[3-(dimethylamino)-1-piperidyl]sulfonyl]-6-(3-fluoro-5-isobutoxy-phenyl)-2-(2,2,4-trimethylpyrrolidin-1-yl)pyridine-3-carboxamide]",+++ (“+++” means <3 uM)
4,"Cc1cc(C)c(Oc2nc3c(cc2C(=O)NS(=O)(=O)c2nccnc2N)CCCC3(C)C)c(C)c1 [Compound 1223, N-(3-aminopyrazin-2-yl)sulfonyl-8,8-dimethyl-2-(2,4,6-trimethylphenoxy)-6,7-dihydro-5H-quinoline-3-carboxamide]",+++ (“+++” means <3 uM)
5,"Cc1cc(C)c(Oc2nc(C(C)(C)C)ccc2C(=O)NS(=O)(=O)c2c(C)cc[nH]c2=O)c(C)c1 [Compound 1311, 6-tert-butyl-N-[(4-methyl-2-oxo-1H-pyridin-3-yl)sulfonyl]-2-(2,4,6-trimethylphenoxy)pyridine-3-carboxamide]",+++ (“+++” means <3 uM)
6,"COc1ccc(F)cc1-c1ccc(C(=O)NS(=O)(=O)c2ccc[nH]c2=O)c(Oc2c(C)cc(C)cc2C)n1 [Compound 1151, 6-(5-fluoro-2-methoxy-phenyl)-N-[(2-oxo-1H-pyridin-3-yl)sulfonyl]-2-(2,4,6-trimethylphenoxy)pyridine-3-carboxamide]",++ (“++” means between 3 uM and 10 uM)
7,"COc1cc(C)cc(S(=O)(=O)NC(=O)c2ccc(-c3cc(F)cc(OCC(C)C)c3)nc2N2C[C@@H](C)CC2(C)C)n1 [Compound 1482, 6-(3-fluoro-5-isobutoxy-phenyl)-N-[(6-methoxy-4-methyl-2-pyridyl)sulfonyl]-2-[(4S)-2,2,4-trimethylpyrrolidin-1-yl]pyridine-3-carboxamide]",+++ (“+++” means <3 uM)
8,"Cc1cc(-c2ccc(C(=O)NS(=O)(=O)c3cccc(N)n3)c(N3C[C@@H](C)CC3(C)C)n2)cnc1OCC(C)C [Compound 1741, N-[(6-amino-2-pyridyl)sulfonyl]-6-(6-isobutoxy-5-methyl-3-pyridyl)-2-[(4S)-2,2,4-trimethylpyrrolidin-1-yl]pyridine-3-carboxamide]",+++ (“+++” means <3 uM)
9,"CC(C)COc1cc(F)cc(-c2ccc(C(=O)NS(=O)(=O)c3cccc(N)n3)c(N3CC(C)CC34CC4)n2)c1 (stereo not shown) [Compound 1754, N-[(6-amino-2-pyridyl)sulfonyl]-6-(3-fluoro-5-isobutoxy-phenyl)-2-(5-methyl-7-azaspiro[2.4]heptan-7-yl)pyridine-3-carboxamide]",+++ (“+++” means <3 uM)
10,"Cc1cc(C)c(Oc2nc(-c3ccc4cn(C)nc4c3)ccc2C(=O)NS(=O)(=O)c2cccc(N)n2)c(C)c1 [Compound 1299, N-[(6-amino-2-pyridyl)sulfonyl]-6-(2-methylindazol-6-yl)-2-(2,4,6-trimethylphenoxy)pyridine-3-carboxamide]",++ (“++” means between 3 uM and 10 uM)
11,"CC(C)COc1cc(F)cc(-c2ccc(C(=O)NS(=O)(=O)c3cccc(N)n3)c(N3CCC[C@H](C)C3)n2)c1 [Compound 1193, N-[(6-amino-2-pyridyl)sulfonyl]-6-(3-fluoro-5-isobutoxy-phenyl)-2-[(3S)-3-methyl-1-piperidyl]pyridine-3-carboxamide]",+++ (“+++” means <3 uM)
12,"COc1ncccc1S(=O)(=O)NC(=O)c1ccc(-c2ccccc2)nc1Oc1c(C)cc(C)cc1C [Compound 939, N-[(2-methoxy-3-pyridyl)sulfonyl]-6-phenyl-2-(2,4,6-trimethylphenoxy)pyridine-3-carboxamide]",+++ (“+++” means <3 uM)
13,"Cc1ccc(-c2ccc(C(=O)NS(=O)(=O)c3nccnc3N)c(-c3ccc(C)cc3)n2)cc1 [Compound 820, N-(3-aminopyrazin-2-yl)sulfonyl-2,6-bis(p-tolyl)pyridine-3-carboxamide]",+ (“+” means greater than 10 uM)

# The next lines start with the values.
row,EC30,SMILES
1,+++ (“+++” means <3 uM),"CCC(CC)Nc1ccc(-c2ccc(C(=O)NS(=O)(=O)c3cccc(N)n3)c(N3[C@H](C)CC[C@@H]3C)n2)cn1 [Compound 1397, N-[(6-amino-2-pyridyl)sulfonyl]-2-[(2R,5S)-2,5-dimethylpyrrolidin-1-yl]-6-[6-(1-ethylpropylamino)-3-pyridyl]pyridine-3-carboxamide]"
2,+++ (“+++” means <3 uM),"COc1ccc(-c2ccc(C(=O)NS(=O)(=O)c3cccnc3N)c(N3C[C@@H](C)CC3(C)C)n2)c(F)c1 [Compound 1818, N-[(2-amino-3-pyridyl)sulfonyl]-6-(2-fluoro-4-methoxy-phenyl)-2-[(4S)-2,2,4-trimethylpyrrolidin-1-yl]pyridine-3-carboxamide]"
3,+++ (“+++” means <3 uM),"CC(C)Oc1ccc(-c2ccc(C(=O)NS(=O)(=O)c3cccc(N)n3)c(N(C)C3CCCC3)n2)cn1 [Compound 1025, N-[(6-amino-2-pyridyl)sulfonyl]-2-[cyclopentyl(methyl)amino]-6-(6-isopropoxy-3-pyridyl)pyridine-3-carboxamide]"
4,++ (“++” means between 3 uM and 10 uM),"CC1CN(c2ncccc2C(=O)NS(=O)(=O)c2cccc(N3CCN(C4CCCC4)CC3)n2)C(C)(C)C1 (stereo not shown) [Compound 1733, N—[[6-(4-cyclopentylpiperazin-1-yl)-2-pyridyl]sulfonyl]-2-(2,2,4-trimethylpyrrolidin-1-yl)pyridine-3-carboxamide]"
5,++ (“++” means between 3 uM and 10 uM),"Cc1cc(C)c(Oc2nc(-c3ccc(CN)cc3)ccc2C(=O)NS(=O)(=O)c2cccc(N)n2)c(C)c1 [Compound 1228, 6-[4-(aminomethyl)phenyl]-N-[(6-amino-2-pyridyl)sulfonyl]-2-(2,4,6-trimethylphenoxy)pyridine-3-carboxamide]"
6,+++ (“+++” means <3 uM),"CCO/C=C/c1cc(C(=O)NS(=O)(=O)c2cccc(N)n2)c(N2C[C@@H](C)CC2(C)C)nc1C(C)(C)C [Compound 1626, N-[(6-amino-2-pyridyl)sulfonyl]-6-tert-butyl-5-[(E)-2-ethoxyvinyl]-2-[(4S)-2,2,4-trimethylpyrrolidin-1-yl]pyridine-3-carboxamide]"
7,+++ (“+++” means <3 uM),"CC1CN(c2ncccc2C(=O)NS(=O)(=O)c2cccc(Nc3cc(F)c(F)cc3F)n2)C(C)(C)C1 (stereo not shown) [Compound 1796, N—[[6-(2,4,5-trifluoroanilino)-2-pyridyl]sulfonyl]-2-(2,2,4-trimethylpyrrolidin-1-yl)pyridine-3-carboxamide]"
8,+++ (“+++” means <3 uM),"Cc1cc(C)c(Oc2nc(C3=CCN(Cc4ccccc4)CC3)ccc2C(=O)NS(=O)(=O)c2cccc(N)n2)c(C)c1 [Compound 1389, N-[(6-amino-2-pyridyl)sulfonyl]-6-(1-benzyl-3,6-dihydro-2H-pyridin-4-yl)-2-(2,4,6-trimethylphenoxy)pyridine-3-carboxamide]"
9,+++ (“+++” means <3 uM),"CC1CN(c2ncccc2C(=O)NS(=O)(=O)c2cccc(NCc3ccc(Cl)cc3Cl)n2)C(C)(C)C1 (stereo not shown) [Compound 1968, N—[[6-[(2,4-dichlorophenyl)methylamino]-2-pyridyl]sulfonyl]-2-(2,2,4-trimethylpyrrolidin-1-yl)pyridine-3-carboxamide]"
10,++ (“++” means between 3 uM and 10 uM),"CC1CN(c2ncc(C3=CC4CCC3C4)cc2C(=O)NS(=O)(=O)c2cccc(N)n2)C(C)(C)C1 (stereo not shown) [Compound 1888, N-[(6-amino-2-pyridyl)sulfonyl]-5-(3-bicyclo[2.2.1]hept-2-enyl)-2-(2,2,4-trimethylpyrrolidin-1-yl)pyridine-3-carboxamide]"
11,+++ (“+++” means <3 uM),"C[C@@H]1CN(c2nc(C3=CCOCC3)ccc2C(=O)NS(=O)(=O)c2cccc(N)n2)C(C)(C)C1 [Compound 1594, N-[(6-amino-2-pyridyl)sulfonyl]-6-(3,6-dihydro-2H-pyran-4-yl)-2-[(4S)-2,2,4-trimethylpyrrolidin-1-yl]pyridine-3-carboxamide]"
12,++ (“++” means between 3 uM and 10 uM),"Cc1ccc(-c2ccc(C(=O)NS(=O)(=O)c3cccc(N)n3)c(NCC3(C)CCOCC3)n2)cc1 [Compound 1196, N-[(6-amino-2-pyridyl)sulfonyl]-2-[(4-methyltetrahydropyran-4-yl)methylamino]-6-(p-tolyl)pyridine-3-carboxamide]"
13,++ (“++” means between 3 uM and 10 uM),"CC(C)Oc1ccc(-c2ccc(C(=O)NS(=O)(=O)c3cccc(N)n3)c(N3CCCC(OCC4CC4)C3)n2)cn1 (stereo not shown) [Compound 858, N-[(6-amino-2-pyridyl)sulfonyl]-2-[3-(cyclopropylmethoxy)-1-piperidyl]-6-(6-isopropoxy-3-pyridyl)pyridine-3-carboxamide]"
14,+++ (“+++” means <3 uM),"CC1CN(c2nc(-c3cccc(NC(C)C)n3)ccc2C(=O)NS(=O)(=O)c2cccc(N)n2)C(C)(C)C1 (stereo not shown) [Compound 951, N-[(6-amino-2-pyridyl)sulfonyl]-6-[6-(isopropylamino)-2-pyridyl]-2-(2,2,4-trimethylpyrrolidin-1-yl)pyridine-3-carboxamide]"
15,++ (“++” means between 3 uM and 10 uM),"Cc1cc(C)c(Oc2nc(C)ccc2C(=O)NS(=O)(=O)c2cccc(N3CCOCC3)n2)c(C)c1 [Compound 883, 6-methyl-N-[(6-morpholino-2-pyridyl)sulfonyl]-2-(2,4,6-trimethylphenoxy)pyridine-3-carboxamide]"

# — patent US10758534B2 (Vertex Pharmaceuticals Incorporated, priority 2014, dated 2020)
